Results taken from US20250230165A1, “HETEROCYCLIC COMPOUNDS FOR USE IN THE TREATMENT OF CANCER” (ARTIOS PHARMA LIMITED, priority 2021, published 2025).

Biological target: T1, Human Polθ polymerase domain (aa1820-2590) (Homo sapiens, UniProt O75417)
T1 construct: Human Polθ polymerase domain (aa1820-2590) was expressed in E. coli; made in house; host or cells: E. coli
T1 sequence (O75417 1820-2590): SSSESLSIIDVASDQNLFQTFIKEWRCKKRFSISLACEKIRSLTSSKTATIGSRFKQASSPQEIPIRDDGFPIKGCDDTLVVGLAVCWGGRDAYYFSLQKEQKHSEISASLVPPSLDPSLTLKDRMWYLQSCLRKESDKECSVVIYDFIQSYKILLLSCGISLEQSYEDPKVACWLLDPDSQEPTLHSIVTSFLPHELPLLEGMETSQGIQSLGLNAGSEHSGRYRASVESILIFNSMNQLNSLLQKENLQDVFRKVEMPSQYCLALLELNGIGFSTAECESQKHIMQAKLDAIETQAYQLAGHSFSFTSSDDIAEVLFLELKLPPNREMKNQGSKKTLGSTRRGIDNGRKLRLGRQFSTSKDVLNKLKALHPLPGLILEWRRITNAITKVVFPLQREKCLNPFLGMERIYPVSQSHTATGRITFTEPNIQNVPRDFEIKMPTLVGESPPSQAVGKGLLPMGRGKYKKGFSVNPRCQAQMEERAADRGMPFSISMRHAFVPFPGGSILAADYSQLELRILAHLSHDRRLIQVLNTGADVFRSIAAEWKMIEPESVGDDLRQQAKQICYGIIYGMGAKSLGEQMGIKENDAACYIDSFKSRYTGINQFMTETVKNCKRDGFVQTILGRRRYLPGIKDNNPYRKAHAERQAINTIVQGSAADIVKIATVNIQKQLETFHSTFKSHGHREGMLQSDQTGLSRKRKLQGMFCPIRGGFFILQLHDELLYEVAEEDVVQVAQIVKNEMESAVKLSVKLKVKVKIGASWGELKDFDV
Assay: Polθ Polymerase Domain Kinact/KI Assay (PicoGreen)
Format: biochemical
Details: 0.8 nM Polθ, 100 nM DNA substrate, kobs vs [I] fit for 2-step covalent inhibitor
Procedure, shortened: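 Covalent inhibitors were tested against E. coli-expressed enzyme (0.8 nM final) with 100 nM annealed DNA substrate and […] in Tris pH 7.5 buffer, 1% DMSO. Reactions were EDTA-quenched over a 0–60 min time course and product DNA detected by PicoGreen fluorescence.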

| Kinact/Kl | SMILES |
| --- | --- |
| 2e+06 M⁻¹ s⁻¹ | C=CC(=O)N1Cc2nc(CN3C[C@H]4CC(=O)N(c5cc(C(F)(F)F)cc(C)n5)[C@@H]4C(=O)Nc4cccc(Cl)c43)cn2C[C@@H]1C (racemic) [Example 144b, (3aR,11aS)-5-(((S/R)-7-acryloyl-6-methyl-5,6,7,8-tetrahydroimidazo[1,2-a]pyrazin-2-yl)methyl)-6-chloro-1-(6-methyl-4-(trifluoromethyl)pyridin-2-yl)-1,3a,4,5,10,11a-hexahydro-2H-benzo[b]pyrrolo[2,3-f][1,4]diazocine-2,11(3H)-dione] |
| 410000 M⁻¹ s⁻¹ | Cc1cc(C(F)(F)F)cc(N2C(=O)C[C@@H]3CN(Cc4ccc([C@@H]5CCCN5C(=O)/C=C/CN(C)C)cc4)c4c(F)cccc4N(C)C(=O)[C@H]32)n1 (racemic) [Example 170b, (3aR,11aS)-5-(4-((S/R)-1-((E)-4-(dimethylamino)-but-2-enoyl)pyr-rolidin-2-yl)benz-yl)-6-fluoro-10-methyl-1-(6-methyl-4-(tri-fluoromethyl)-pyridin-2-yl)-1,3a,4,5,10,11a-hexahydro-2H-benzo[b]pyrrolo [2,3-f][1,4]diazo-cine-2,11(3H)-dione] |
| 2.29e+06 M⁻¹ s⁻¹ | C=C(CN(C)C)C(=O)N1CCC[C@@H]1c1ccc(CN2C[C@H]3CC(=O)N(c4cc(C(F)(F)F)cc(C)n4)[C@@H]3C(=O)N(C)c3cccc(F)c32)cc1 (racemic) [Example 171a, (3aR,11aS)-5-(4-((R/S)-1-(2-((di-methylamino)-methyl)acryloyl)-pyrrolidin-2-yl)-benzyl)-6-fluoro-10-methyl-1-(6-methyl-4-(tri-fluoromethyl)-pyridin-2-yl)-1,3a,4,5,10,11a-hexahydro-2H-benzo[b]pyrrolo [2,3-f][1,4]diazo-cine-2,11(3H)-dione] |
| 1.62e+06 M⁻¹ s⁻¹ | C=C(CN(C)C)C(=O)N1CCC[C@H]1c1ccc(CN2C[C@H]3CC(=O)N(c4cc(C(F)(F)F)cc(C)n4)[C@@H]3C(=O)N(C)c3cccc(F)c32)cc1 (racemic) [Example 171b, (3aR,11aS)-5-(4-((S/R)-1-(2-((di-methylamino)-methyl)acryloyl)-pyrrolidin-2-yl)-benzyl)-6-fluoro-10-methyl-1-(6-methyl-4-(tri-fluoromethyl)-pyridin-2-yl)-1,3a,4,5,10,11a-hexahydro-2H-benzo[b]pyrrolo [2,3-f][1,4]diazo-cine-2,11(3H)-dione] |
| 900000 M⁻¹ s⁻¹ | C#CC(=O)N1Cc2nc(CN3C[C@H]4CC(=O)N(c5cc(C(F)(F)F)cc(C)n5)[C@@H]4C(=O)N(C)c4cccc(Cl)c43)cn2C[C@@H]1C (racemic) [Example 172a, (3aR,11aS)-6-chloro-10-meth-yl-1-(6-methyl-4-(trifluorometh-yl)pyridin-2-yl)-5-(((S/R)-6-meth-yl-7-propioloyl-5,6,7,8-tetra-hydroimidazo [1,2-a]pyrazin-2-yl)methyl)-1,3a, 4,5,10,11a-hexa-hydro-2H-benzo [b]pyrrolo[2,3-f] [1,4]diazocine-2,11(3H)-dione] |
| 280000 M⁻¹ s⁻¹ | C#CC(=O)N1Cc2nc(CN3C[C@H]4CC(=O)N(c5cc(C(F)(F)F)cc(C)n5)[C@@H]4C(=O)N(C)c4cccc(Cl)c43)cn2C[C@H]1C (racemic) [Example 172b, (3aR,11aS)-6-chloro-10-meth-yl-1-(6-methyl-4-(trifluoro-methyl)pyridin-2-yl)-5-(((R/S)-6-methyl-7-propioloyl-5,6,7,8-tetra-hydroimidazo [1,2-a]pyrazin-2-yl)methyl)-1,3a,4,5,10,11a-hexahydro-2H-benzo[b]pyrrolo [2,3-f][1,4]diazo-cine-2,11(3H)-dione] |
| 1.38e+06 M⁻¹ s⁻¹ | C#CC(=O)N1Cc2nc(CN3C[C@H]4CC(=O)N(c5cc(C(F)(F)F)cc(C)n5)[C@@H]4C(=O)N(C)c4cccc(C)c43)cn2C[C@H]1C (racemic) [Example 199, (3aR,11aS)-6,10-dimethyl-1-(6-methyl-4-(tri-fluoromethyl)pyr-idin-2-yl)-5-(((R/S)-6-methyl-7-propioloyl-5,6,7,8-tetrahydro-imidazo[1,2-a]pyr-azin-2-yl)methyl)-1,3a,4,5,10,11a-hexahydro-2H-benzo[b]pyrrolo [2,3-f][1,4]diazo-cine-2,11(3H)-dione] |
| 4.19e+06 M⁻¹ s⁻¹ | C=CC(=O)N1Cc2nc(CN3C[C@H]4CC(=O)N(c5cc(C(F)(F)F)cc(C)n5)[C@@H]4C(=O)N(C)c4cccc(C)c43)cn2C[C@@H]1C (racemic) [Example 206b, (3aR,11aS)-5-(((S/R)-7-acryloyl-6-methyl-5,6,7,8-tetrahydroimidazo [1,2-a]pyrazin-2-yl)methyl)-6,10-dimethyl-1-(6-methyl-4-(trifluoromethyl)pyridin-2-yl)-1,3a,4,5,10,11a-hexahydro-2H-benzo[b]pyrrolo [2,3-f][1,4]diazocine-2,11(3H)-dione] |
| 1.31e+06 M⁻¹ s⁻¹ | C=CC(=O)N1CC(N2CCC[C@H](CN3C[C@H]4CC(=O)N(c5cc(C(F)(F)F)cc(C)n5)[C@@H]4C(=O)N(C)c4cccc(F)c43)C2)C1 (racemic) [Example 225b, (3aR,11aS)-5-(((S/R)-1-(1-acryloylazetidin-3-yl)piperidin-3-yl)methyl)-6-fluoro-10-methyl-1-(6-methyl-4-(trifluoromethyl)pyridin-2-yl)-1,3a,4,5,10,11a-hexahydro-2H-benzo[b] pyrrolo[2,3-f] [1,4]diazocine-2,11(3H)-dione] |
| 860000 M⁻¹ s⁻¹ | C=CC(=O)N1Cc2cc(CN3C[C@H]4CC(=O)N(c5cc(C(F)(F)F)cc(C)n5)[C@@H]4C(=O)N(C)c4cccc(Cl)c43)cnc2[C@H]1CO (racemic) [Example 231, (3aR,11aS)-5-(((S/R)-6-acryloyl-7-(hydroxymethyl)-6,7-dihydro-5H-pyrrolo[3,4-b]pyridin-3-yl)methyl)-6-chloro-10-methyl-1-(6-methyl-4-(trifluoromethyl)pyridin-2-yl)-1,3a,4,5,10,11a-hexahydro-2H-benzo[b]pyrrolo[2,3-f][1,4]diazocine-2,11(3H)-dione] |
| 2.99e+06 M⁻¹ s⁻¹ | C=CC(=O)N1Cc2cc(CN3C[C@H]4CC(=O)N(c5cc(C(F)(F)F)cc(C)n5)[C@@H]4C(=O)N(C)c4cccc(C)c43)cnc2[C@H]1CO (racemic) [Example 233, (3aR,11aS)-5-(((S/R)-6-acryloyl-7-(hydroxymethyl)-6,7-dihydro-5H-pyrrolo[3,4-b]pyridin-3-yl)methyl)-6,10-dimethyl-1-(6-methyl-4-(trifluoromethyl)pyridin-2-yl)-1,3a,4,5,10,11a-hexahydro-2H-benzo[b]pyrrolo[2,3-f][1,4]diazocine-2,11(3H)-dione] |
| 5.85e+06 M⁻¹ s⁻¹ | C=CC(=O)N1Cc2cc(CN3C[C@H]4CC(=O)N(c5cc(C(F)(F)F)cc(C)n5)[C@@H]4C(=O)N(C)c4cccc(C)c43)cnc2[C@H]1COC (racemic) [Example 234, (3aR,11aS)-5-(((S/R)-6-acryloyl-7-(methoxymethyl)-6,7-dihydro-5H-pyrrolo[3,4-b]pyridin-3-yl)methyl)-6,10-dimethyl-1-(6-methyl-4-(trifluoromethyl)pyridin-2-yl)-1,3a,4,5,10,11a-hexahydro-2H-benzo[b]pyrrolo[2,3-f][1,4]diazocine-2,11(3H)-dione] |
| 930000 M⁻¹ s⁻¹ | C=CC(=O)N1Cc2cc(CN3C[C@H]4CC(=O)N(c5cc(C(F)(F)F)cc(C)n5)[C@@H]4C(=O)N(C)c4cccc(Cl)c43)ccc2[C@@H]1CC#N (racemic) [Example 287a, 2-((S/R)-2-acryloyl-5-(((3aR,11aS)-6-chloro-10-methyl-1-(6-methyl-4-(trifluoromethyl)pyridin-2-yl)-2,11-dioxo-1,2,3,3a,4,10,11,11a-octahydro-5H-benzo[b]pyrrolo[2,3-f][1,4]diazocin-5-yl)methyl)isoindolin-1-yl)acetonitrile] |
| 500000 M⁻¹ s⁻¹ | C=CC(=O)N1Cc2ccc(CN3C[C@H]4CC(=O)N(c5cc(C(F)(F)F)cc(C)n5)[C@@H]4C(=O)N(C)c4cccc(Cl)c43)cc2[C@@H]1CC#N (racemic) [Example 288b, 2-((S/R)-2-acryloyl-6-(((3aR,11aS)-6-chloro-10-methyl-1-(6-methyl-4-(trifluoromethyl)pyridin-2-yl)-2,11-dioxo-1,2,3,3a,4,10,11,11a-octahydro-5H-benzo[b]pyrrolo[2,3-f][1,4]diazocin-5-yl)methyl)isoindolin-1-yl)acetonitrile] |

| SMILES | Kinact/Kl |
| --- | --- |
| Cc1cc(C(F)(F)F)cc(N2C(=O)C[C@@H]3CN(Cc4ccc([C@H]5CCCN5C(=O)/C=C/CN(C)C)cc4)c4c(F)cccc4N(C)C(=O)[C@H]32)n1 (racemic) [Example 170a, (3aR,11aS)-5-(4-((R/S)-1-((E)-4-(dimethylamino)-but-2-enoyl)pyr-rolidin-2-yl)benz-yl)-6-fluoro-10-methyl-1-(6-methyl-4-(tri-fluoromethyl)-pyridin-2-yl)-1,3a,4,5,10,11a-hexahydro-2H-benzo[b]pyrrolo [2,3-f][1,4]diazo-cine-2,11(3H)-dione] | 880000 M⁻¹ s⁻¹ |
